Tests used:
[1] = molecular target: T1, wild type human RORγt ligand binding domain (RORyt LBD) (Homo sapiens, UniProt P51449); experiment: RORγt ThermoFluor assay (thermal shift, binding affinity KD)
T1 construct: His-tag (N); TurboTEV protease cleavage site (ENLYFQG) (N); made in house; host or cells: E. coli (pHIS1, modified pET vector)
T1 sequence (P51449 258-518): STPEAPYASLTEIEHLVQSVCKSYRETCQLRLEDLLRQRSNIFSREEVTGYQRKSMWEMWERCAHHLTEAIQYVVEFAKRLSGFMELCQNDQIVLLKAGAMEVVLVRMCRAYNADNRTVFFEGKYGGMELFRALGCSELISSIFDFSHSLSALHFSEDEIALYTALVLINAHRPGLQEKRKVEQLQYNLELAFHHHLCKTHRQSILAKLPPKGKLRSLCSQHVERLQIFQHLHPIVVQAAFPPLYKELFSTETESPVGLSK

[2] = molecular target: T2, wild type human RORγt LBD (Homo sapiens, UniProt P51449); experiment: RORγt (LBD) Reporter Assay (GAL4-luciferase, HEK293T cells); format: cell-based; conditions: for RORγt (LBD) Reporter Assay, % inhibition @ 6 µM: 6 µM compound concentration; for IC50: HEK293T cells, value after the comma with ∼, > or < could not be included in the average; for inhibition at 6 µM: HEK-293T, read-out: RORγt (LBD) Reporter Assay, % inhibition @ 6 µM, 6 µM compound concentration
T2 construct: expressed in transfected cells; host or cells: HEK293T
T2 sequence (P51449 258-518): T1 sequence (P51449 258-518)

Row | SMILES | Kd [1] | RORγt (LBD) Reporter Assay, % inhibition @ 6 µM ([2]; 6 µM) | IC50 [2] | inhibition at 6 µM [2] | RORγt (LBD) Reporter Assay, % inhibition @ 6 µM [2]
1 | COc1nc2ccc(C(O)(c3cnnn3C)c3cnc(C)n3C)cc2c(Cl)c1Cc1ccc(C(F)(F)F)nc1 (single isomer, unassigned) [Example 43b, (4-Chloro-2-methoxy-3-((6-(trifluoromethyl)pyridin-3-yl)methyl)quinolin-6-yl)(1,2-dimethyl-1H-imidazol-5-yl)(1-methyl-1H-1,2,3-triazol-5-yl)methanol] | 0.49 nM | – | 10 nM | 98% | –
2 | COc1nc2ccc(C(O)(c3cnnn3C)c3cnc(C)n3C)cc2c(Cl)c1Cc1ccc(C(F)(F)F)nc1 (single isomer, unassigned) [Example 43c, (4-Chloro-2-methoxy-3-((6-(trifluoromethyl)pyridin-3-yl)methyl)quinolin-6-yl)(1,2-dimethyl-1H-imidazol-5-yl)(1-methyl-1H-1,2,3-triazol-5-yl)methanol] | 0.96 nM | 99% | 5.3 nM | – | –
3 | COc1nc2ccc(C(O)(c3cnnn3C)c3cnc(C)n3C)cc2c(C#N)c1Cc1ccc(C(F)(F)F)nc1 (single isomer, unassigned) [Example 44b, 6-((1,2-Dimethyl-1H-imidazol-5-yl)(hydroxy)(1-methyl-1H-1,2,3-triazol-5-yl)methyl)-2-methoxy-3-((6-(trifluoromethyl)pyridin-3-yl)methyl)quinoline-4-carbonitrile] | 5.2 nM | – | 24 nM | 99% | –
4 | COc1nc2ccc(C(O)(c3cnnn3C)c3cnc(C)n3C)cc2c(C#N)c1Cc1ccc(C(F)(F)F)nc1 (single isomer, unassigned) [Example 44c, 6-((1,2-Dimethyl-1H-imidazol-5-yl)(hydroxy)(1-methyl-1H-1,2,3-triazol-5-yl)methyl)-2-methoxy-3-((6-(trifluoromethyl)pyridin-3-yl)methyl)quinoline-4-carbonitrile] | 9 nM | – | 19 nM | – | 99%

Now from value to compound:

Row | Kd [1] | RORγt (LBD) Reporter Assay, % inhibition @ 6 µM ([2]; 6 µM) | IC50 [2] | inhibition at 6 µM [2] | RORγt (LBD) Reporter Assay, % inhibition @ 6 µM [2] | SMILES
5 | 5.2 nM | 98% | 14 nM | – | – | COc1nc2ccc(C(O)(c3ccc(C#N)cc3)c3cncn3C)cc2c(Cl)c1Cc1ccc(C(F)(F)F)nc1 (single isomer, unassigned) [Example 38c, 4-((4-Chloro-2-methoxy-3-((6-(trifluoromethyl)pyridin-3-yl)methyl)quinolin-6-yl)(hydroxy)(1-methyl-1H-imidazol-5-yl)methyl)benzonitrile]
6 | 1200 nM | – | 1600 nM | 92% | – | COc1nc2ccc(C(O)(c3ccc(C)nc3C)c3cnnn3C)cc2c(C#N)c1Cc1ccc(C(F)(F)F)nc1 (single isomer, unassigned) [Example 41b, 6-((2,6-Dimethylpyridin-3-yl)(hydroxy)(1-methyl-1H-1,2,3-triazol-5-yl)methyl)-2-methoxy-3-((6-(trifluoromethyl)pyridin-3-yl)methyl)quinoline-4-carbonitrile]
7 | 6.4 nM | 99% | 5.9 nM | – | – | COc1nc2ccc(C(O)(c3ccc(C)nc3C)c3cnnn3C)cc2c(C#N)c1Cc1ccc(C(F)(F)F)nc1 (single isomer, unassigned) [Example 41c, 6-((2,6-Dimethylpyridin-3-yl)(hydroxy)(1-methyl-1H-1,2,3-triazol-5-yl)methyl)-2-methoxy-3-((6-(trifluoromethyl)pyridin-3-yl)methyl)quinoline-4-carbonitrile]
8 | 3.9 nM | 46% | 170 nM | – | – | COc1nc2ccc(C(O)(c3ccc(F)cc3)C3CCN(C(C)=O)CC3)cc2c(Cl)c1Cc1ccc(F)cc1 (single isomer, unassigned) [Example 51b, 1-(4-((4-Chloro-3-(4-fluorobenzyl)-2-methoxyquinolin-6-yl)(4-fluorophenyl)(hydroxy)methyl)piperidin-1-yl)ethanone]

Reference: patent publication EP3057951B1, “METHYLENE LINKED QUINOLINYL MODULATORS OF ROR-GAMMA-T” (Janssen Pharmaceutica NV, priority 2013, dated 2015)
